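Growth conditions: 96-well plates. Treatment: test compound, 48 hours, 5 concentrations. Analysis: linear interpolation between bracketing concentrations; unreached endpoints set to highest concentration. GI50 = concentration required for 50% inhibition of growth. TGI: concentration producing complete growth inhibition.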

Holding throughout (test): NCI tumour cell line growth inhibition, 48 h
Test [1] relates to U251 CNS.
Test [2] concerns KM12 colon.
In test [3] the test system is HCC-2998 colon.
Test [4] concerns SK-MEL-2 melanoma.
The subject of test [5] is A549 NSCLC.
Test [6] relates to M14 melanoma.
Test [7] has as its system HCT-15 colon.
For test [8], the system named is DU-145 prostate.
Test [9] deals with SNB-75 CNS.
The test system of test [10] is A498 renal.

As to `[CH3][Sn]([CH3])([CH3])[O][N+](=O)[O-]`, the GI50 in test [1] is 1.45 µM; in test [2], above 10 µM; in [3], above 10 µM; in test [4], 5.1 µM; in [5], above 10 µM; in [6], 6.33 µM. The GI50 in test [7] is 2 µM; in test [8], above 10 µM; in test [9] it was above 10 µM. In addition, the TGI in test [1] was 2.77 µM; in test [2], above 10 µM; in test [3], above 10 µM; in test [4], above 10 µM; in [5], above 10 µM; in [6] it was above 10 µM. In addition, the TGI is 4.13 µM in test [7], above 10 µM in test [8] and above 10 µM in [9].

For the compound `c1ccc2c(NCCCCCCNc3cccc4ccccc34)cccc2c1`, the TGI in test [1], in test [2], in test [10], in [3], in test [4] and in test [5] was above 100 µM in each case. Besides, the TGI in test [6], in test [7] and in [9] was above 100 µM throughout.

As to `Cc1ccc(NC(=O)OCC(COc2ccc(Cl)cc2Cl)OC(=O)Nc2ccc(C)cc2)cc1` (stereo not drawn), the TGI in [1], in [2], in test [10], in test [3], in test [4] and in [5] was above 100 µM each time. The figures for the TGI in test [6], in test [7] and in [9] were above 100 µM, above 100 µM and 68.2 µM, respectively.

Turning to `Fc1ccc(Nc2nc3ccccc3c3occc23)cc1`, the GI50 in [1] is 12.3 µM; in test [2], 1.9 µM; in test [3] it was 1.96 µM; in test [4] it was 11.9 µM; in [5], 8.99 µM; in test [6], 0.873 µM. Further, the GI50 in test [7] is 9.58 µM; in test [8], 14.4 µM. Further, the TGI in [1] was 24.7 µM; in test [2], 6.23 µM; in [3], 7.31 µM; in test [4], 27.6 µM; in [5] it was 23.2 µM; in [6], 13.7 µM. Moreover, the TGI in [7] is 21.4 µM; in test [8] it was 27.5 µM.

For the compound `Cc1cc(Cl)ccc1NC(=O)C(=O)C(C(=O)c1ccccc1)C1OC(=O)c2ccccc21` (stereo not drawn), the TGI in test [1], in [2], in [10], in [3], in [4] and in [5] was above 100 µM in each case. In addition, the TGI in test [6], in [7] and in [9] was above 100 µM each time.

Consider `CCCCCCCC(=O)[O][Hg][CH2]C1COC([CH2][Hg][O]C(=O)CCCCCCC)CO1` (stereo not drawn), for which the GI50 in [1] is 15.2 µM; in [2] it was 16.3 µM; in test [3], 18 µM; in test [5] it was 20.3 µM; in test [6], 16.4 µM; in test [7] it was 9.54 µM. Moreover, the GI50 in test [8] was 18.1 µM; in test [9], 15.3 µM. Besides, the TGI was determined as 28.6 µM in [1]; 30.6 µM in [2]; 33.1 µM in [3]; 47.2 µM in test [5]; 30 µM in [6]; 26.2 µM in [7]. Moreover, the TGI in test [8] was 32.2 µM; in test [9] it was 34.6 µM.

As for `COc1ccc2c(c1OC(C)=O)C1=CC(=O)CCC13CCNC3C2` (stereo not drawn), the TGI in test [1], in test [2], in test [3], in test [4], in [5] and in test [6] was above 100 µM in each case. The TGI in [7], in test [8] and in test [9] was above 100 µM each time.

For `CC1CC[P+](c2ccccc2)(c2ccccc2)CC1`, the TGI in test [1], in [2], in test [10], in test [3], in [4] and in [5] was above 100 µM in each case. Further, the TGI in [6], in [7] and in [9] was above 100 µM each time.

On to `CSc1ccc(C(=O)/C=C/c2ccccc2Cl)cc1`, for which the GI50 in test [1] was 4.75 µM; in test [2], 16.6 µM; in [3], 13.1 µM; in [4] it was 16.2 µM; in [5], 15.1 µM; in test [6], 16.6 µM. Also, the GI50 was 7.73 µM in [7], 13.9 µM in [8] and 22.2 µM in test [9]. Besides, the TGI in [1] came out at 17.2 µM; in test [2], 42 µM; in [3], 28.7 µM; in test [4], 37.7 µM; in test [5], 30.5 µM; in test [6], 36.1 µM. Also, the TGI in [7] stood at 28.9 µM; in test [8] it was 29 µM; in test [9], 45.2 µM.

The values above are taken from PubChem BioAssay (NCI).
